Drawing on patent US20250074901A1, “NOVEL HETEROARYL COMPOUNDS” (ICAGEN, LLC, priority 2021, published 2025), this text covers Emax and EC50 for 14 compounds.

The assay deals with T1, Kv7.2 (Homo sapiens, UniProt O43526).
T1 construct: expressed in transfected cells
The assay is described as follows: Activation of Kv7.2 (in vitro assay, concentration response curve). The assay is classed as cell-based. To be noted: for Emax: Kv7.2 activation max %; for EC50: activation of Kv7.2. In outline:
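Agonist activity was measured in vitro across a range of compound concentrations and plotted as a sigmoidal concentration–response curve. EC50 is the concentration giving 50% of that compound's own maximal response (Emax).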

`O=C(NCc1ccnc(OC(F)F)c1)Nc1cc(F)ccc1F` [Example 244, 1-[[2-(difluoromethoxy)pyridin-4-yl]methyl]-3-(2,5-difluorophenyl)urea] returned an Emax of 50% and an EC50 of 250 nM.
The corresponding values for `O=C(NCc1ccnc(OCC(F)(F)F)c1)Nc1cc(F)ccc1F` [Example 245, 1-(2,5-difluorophenyl)-3-[[2-(2,2,2-trifluoroethoxy)pyridin-4-yl]methyl]urea] are 54% and 50 nM.
As for `O=C(NCc1ccnc(OC(F)F)c1)NC1(C23CC(C2)C3)CC1` [Example 246, 1-[1-(1-bicyclo[1.1.1]pentanyl)cyclopropyl]-3-[[2-(difluoromethoxy)pyridin-4-yl]methyl]urea], the Emax was 60% and the response was half-maximal at 540 nM (EC50).
The corresponding values for `O=C(NCc1ccnc(OC(F)F)c1)Nc1cccc(F)c1F` [Example 247, 1-[[2-(difluoromethoxy)pyridin-4-yl]methyl]-3-(2,3-difluorophenyl)urea] are 53% and 90 nM.
The corresponding values for `O=C(NCc1ccnc(OCC(F)(F)F)c1)Nc1cccc(F)c1F` [Example 248, 1-(2,3-difluorophenyl)-3-[[2-(2,2,2-trifluoroethoxy)pyridin-4-yl]methyl]urea] are 62% and 140 nM.
On to `O=C(NCc1ccnc(OCF)c1)Nc1ccc(F)c(F)c1` [Example 249, 1-(3,4-difluorophenyl)-3-[[2-(fluoromethoxy)pyridin-4-yl]methyl]urea], for which the Emax amounted to 43% and the EC50 was found to be 260 nM.
The corresponding values for `O=C(NCc1ccnc(OC(F)F)c1)N[C@@H]1CCC[C@H](C(F)(F)F)C1` [Example 250, 1-[[2-(difluoromethoxy)pyridin-4-yl]methyl]-3-[(1R,3S)-3-(trifluoromethyl)cyclohexyl]urea] are 75% and 120 nM.
The corresponding values for `[2H]C([2H])(NC(=O)NC12CCC(F)(CC1)CC2)c1ccnc(OC(F)F)c1` [Example 251, 1-[dideuterio-[2-(difluoromethoxy)pyridin-4-yl]methyl]-3-(4-fluoro-1-bicyclo[2.2.2]octanyl)urea] are 60% and 130 nM.
As to `O=C(NCc1ccnc(OC(F)F)c1)NCC(C(F)(F)F)C(F)(F)F` [Example 252, 1-[[2-(difluoromethoxy)pyridin-4-yl]methyl]-3-[3,3,3-trifluoro-2-(trifluoromethyl)propyl]urea], the Emax was 73% and the midpoint of the response, the EC50, lay at 720 nM.
The corresponding values for `O=C(NCc1ccnc(OC(F)F)c1)NC(C1CC1)C1CC1` [Example 253, 1-(dicyclo-propylmethyl)-3-[[2-(difluoromethoxy)pyridin-4-yl]methyl]urea] are 70% and 320 nM.
The corresponding values for `O=C(NCc1ccnc(OCC(F)(F)F)c1)NC1(C2CC(F)(F)C2)CC1` [Example 254, 1-[1-(3,3-difluorocyclobutyl)cyclopropyl]-3-[[2-(2,2,2-trifluoroethoxy)pyridin-4-yl]methyl]urea] are 40% and 1010 nM.
The matching figures for `O=C(Nc1cc(F)cc(F)c1)NC(CO)c1ccnc(OCC(F)(F)F)c1` (stereo not shown) [Example 256, 1-(3,5-difluorophenyl)-3-[2-hydroxy-1-[2-(2,2,2-trifluoroethoxy)pyridin-4-yl]ethyl]urea]: 84% and 30 nM.
Consider `O=C(NCc1ccnc(OCC(F)(F)F)c1)N[C@H](C1CC1)C(F)(F)F` [Example 257, 1-[(1R)-1-cyclopropyl-2,2,2-trifluoroethyl]-3-[[2-(2,2,2-trifluoroethoxy)pyridin-4-yl]methyl]urea], for which the Emax was 61% and the response was half-maximal at 240 nM (EC50).
On to `O=C(NCc1ccnc(OC(F)F)c1)NC1COC(C(F)(F)F)C1` (stereo not shown) [Example 258, 1-[[2-(difluoromethoxy)pyridin-4-yl]methyl]-3-[5-(trifluoromethyl)oxolan-3-yl]urea], for which the Emax worked out at 53% and the EC50 amounted to 500 nM.
